# Reference: patent US7923243B2, “Stress-responsive induction of a therapeutic agent and methods of use” (University of Southern California, priority 1999, dated 2011)
# Test system: B/C10ME fibrosarcoma
# Test: Tumor formation and GCV treatment, B/C10ME fibrosarcoma in BALB/c mice
# Format: in vivo
# Conditions: 2×10^7 cells s.c.; GCV 100 mg/kg daily from day 21, tumor diameter about 2 cm
# Method: Tumor Formation. Confluent cultures of B/C10ME clones were harvested with trypsin-EDTA (Gibco/BRL) and washed three times in PBS. Approximately 2×10^7 viable cells were resuspended in […] of PBS. Six- to eight-week-old BALB/c mice obtained from Jackson Laboratory were subcutaneously injected with an 18-gauge needle in their right flank. Tumors were palpable within 12 days of inoculation and bi-perpendicular measurements were taken of the progressively growing tumor daily. Tumor growth was monitored by measurement of the larger and smaller diameters. At the indicated times post-injection, mice were injected with GCV daily at a dosage of 100 mg/kg of body weight for about 10 days. Tumors were judged to have regressed after losing both measurability and palpability. For each retroviral construct, multiple injections of 2 to 3 independently derived transduced clonal cell lines were performed.
# Complete Eradication of Tumors in G1NaGrpTk Transduced Cells. To directly compare the therapeutic efficacy of the G1NaGrpTk vector with G1TkSvNa, B/C10ME clones transduced with the respective retroviral constructs were injected subcutaneously at a dose of 2×10^7 cells per BALB/c mouse. As controls, the parental, non-transduced cells were also injected. Tumors were palpable after 12 days of injection. At day 21, when the average tumor diameter reached about 2 cm, GCV was administered. […]
structure (smiles),measurement,value
"Nc1nc(O)c2ncn(COC(CO)CO)c2n1 [GCV, ganciclovir]",tumor growth following GCV treatment,tumors continued to grow at various rates
